Data: patent US20260365628A1, “SUBSTITUTED 3,4-DIHYDROQUINOLINONE INHIBITORS OF TSHR” (Septerna, Inc., priority 2022, published 2026)

The compounds below were run against T1, hTSHR (Homo sapiens, UniProt P16473) (assay: hTSHR TR-FRET cAMP Assay (inhibition of M22-stimulated cAMP production)). Conditions: Expi293F Inducible cells stably expressing hTSHR; cAMP HTRF; stimulated with EC80 of anti-TSHR antibody M22; 15 min compound preincubation, 30 min at 37° C.; read-out: Activity (IC50 bins).
T1 construct: expressed in transfected cells
Assay type: cell-based
Experimental: Assays were performed using Expi293F Inducible cells (Invitrogen) stably expressing hTSHR via a pcZeo TetO DNA plasmid. Cell lines were maintained in suspension in Expi293 Expression Medium (ThermoFisher Scientific) supplemented with 10 µg/mL Blasticidin and 10 μg/mL Zeocin and incubated at 37° C., 8% CO2, with shaking. hTSHR cells were incubated overnight at 32° C., 5% C02, with shaking, but […] Doxycycline. Assay-ready aliquots were prepared by harvesting each cell type separately 24-hours post-induction. Cells were pelleted at 4° C., resuspended in Expi293 Expression media+10% DMSO, aliquoted, and kept frozen at −80° C. until ready for use.
For the assay, concentration-response curves of test and reference compounds were added to 384-well plates using an Echo 650 liquid handler (Beckman Coulter) and backfilled with DMSO to a final concentration of 0.5%. cAMP was measured using the cisbio cAMP Gs dynamic HTRF kit (PerkinElmer) according to manufacturer instructions. Aliquots of frozen hTSHR cells were quickly thawed and washed with phosphate-buffered saline (Sigma-Aldrich) to remove media and DMSO. The cells were resuspended in kit-supplied Stimulation Buffer at 0.8×10^6 cells/mL. 7.5 μL of the hTSHR cell dilution were added to each well of the assay plate and incubated with the compounds for 15 minutes in a 37 C, 0% CO2 incubator. 2.5 μL of Vehicle control or an EC80 concentration of recombinant human anti-TSHR antibody (M22, Creative Biolabs) was added to stimulate cAMP production. Cells were incubated with for 30 minutes at 37° C., 0% CO2. Following this incubation, the cells were lysed and accumulated cAMP was detected through the addition of kit-supplied lysis buffer containing d2-reagent and Eu-cryptate antibody. The HTRF signal was quantified using a BMG Clariostar plate reader optimized for HTRF assays. The HTRF ratio was determined by dividing the signal output at […] by that at 620 nm. Data were normalized to the signal produced by the EC80 concentration of either M22 or FSH (0% inhibition) and vehicle (no agonist, 100% inhibition).

T1 sequence (P16473 21-764): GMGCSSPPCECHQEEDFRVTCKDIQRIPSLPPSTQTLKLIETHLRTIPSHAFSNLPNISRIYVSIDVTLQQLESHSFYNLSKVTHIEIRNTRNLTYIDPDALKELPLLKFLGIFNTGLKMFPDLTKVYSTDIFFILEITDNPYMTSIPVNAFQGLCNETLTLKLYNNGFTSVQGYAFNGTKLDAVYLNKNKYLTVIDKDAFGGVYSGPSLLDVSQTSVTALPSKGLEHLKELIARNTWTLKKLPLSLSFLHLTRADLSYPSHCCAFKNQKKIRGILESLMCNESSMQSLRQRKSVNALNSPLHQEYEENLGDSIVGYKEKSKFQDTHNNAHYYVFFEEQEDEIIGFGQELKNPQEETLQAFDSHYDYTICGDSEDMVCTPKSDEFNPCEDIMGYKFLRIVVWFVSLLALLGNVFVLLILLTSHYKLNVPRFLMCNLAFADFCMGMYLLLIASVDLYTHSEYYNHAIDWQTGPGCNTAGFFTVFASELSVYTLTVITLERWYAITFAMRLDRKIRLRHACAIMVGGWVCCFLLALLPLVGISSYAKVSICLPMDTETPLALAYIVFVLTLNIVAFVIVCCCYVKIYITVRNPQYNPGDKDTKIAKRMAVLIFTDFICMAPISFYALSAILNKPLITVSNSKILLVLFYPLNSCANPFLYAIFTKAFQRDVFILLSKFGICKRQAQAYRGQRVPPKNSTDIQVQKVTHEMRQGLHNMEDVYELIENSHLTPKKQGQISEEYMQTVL

IC50 [nM] | Compound
< 100 | CC(C)(C)NC(=O)Nc1ccc2c(c1)CCC(=O)N2Cc1cccc(F)c1 [Example 26, 1-(tert-butyl)-3-(1-(3-fluorobenzyl)-2-oxo-1,2,3,4-tetrahydroquinolin-6-yl)urea]
100 to 1000 | CC(C)(C)NC(=O)Nc1ccc2c(c1)CCC(=O)N2Cc1ccc(F)cc1 [Example 27, 1-(tert-butyl)-3-(1-(4-fluorobenzyl)-2-oxo-1,2,3,4-tetrahydroquinolin-6-yl)urea]
> 1000 | CCC(c1ccccc1)N1C(=O)CCc2cc(NC(=O)NC(C)(C)C)ccc21 (centres unmarked) [Example 28, 1-(tert-butyl)-3-(2-oxo-1-(1-phenylpropyl)-1,2,3,4-tetrahydroquinolin-6-yl)urea]
> 1000 | CC(C)(C)NC(=O)Nc1ccc2c(c1)CC(C)(C)C(=O)N2Cc1ccccc1 [Example 29, 1-(1-benzyl-3,3-dimethyl-2-oxo-1,2,3,4-tetrahydroquinolin-6-yl)-3-(tert-butyl)urea]
> 1000 | CC(C)(C)NC(=O)Nc1ccc2c(c1)CCC(=O)N2C(CO)c1ccccc1 (centres unmarked) [Example 30, 1-(tert-butyl)-3-(1-(2-hydroxy-1-phenylethyl)-2-oxo-1,2,3,4-tetrahydroquinolin-6-yl)urea]
> 1000 | CC(C)(C)NC(=O)Nc1ccc2c(c1)CC(=O)N2Cc1ccccc1 [Example 31, 1-(1-benzyl-2-oxo-3H-indol-5-yl)-3-tert-butylurea]
> 1000 | CC(C)C1Cc2cc(NC(=O)NC(C)(C)C)ccc2N(Cc2ccccc2)C1=O (centres unmarked) [Example 32, 1-(1-benzyl-3-isopropyl-2-oxo-1,2,3,4-tetrahydroquinolin-6-yl)-3-(tert-butyl)urea]
< 100 | CC(C)(C)NC(=O)Nc1ccc2c(c1)OCC(=O)N2Cc1cccc(Cl)c1 [Example 33, 3-tert-butyl-1-{4-[(3-chlorophenyl)methyl]-3-oxo-2H-1,4-benzoxazin-7-yl}urea]
100 to 1000 | C[C@H](c1ccccc1)N1C(=O)COc2cc(NC(=O)NC(C)(C)C)ccc21 [Example 34, (R)-1-(tert-butyl)-3-(3-oxo-4-(1-phenylethyl)-3,4-dihydro-2H-benzo[b][1,4]oxazin-7-yl)urea]
< 100 | C[C@@H](c1ccccc1)N1C(=O)COc2cc(NC(=O)NC(C)(C)C)ccc21 [Example 35, (S)-1-(tert-butyl)-3-(3-oxo-4-(1-phenylethyl)-3,4-dihydro-2H-benzo[b][1,4]oxazin-7-yl)urea]
> 1000 | C[C@H](c1cccc(Cl)c1)N1C(=O)COc2cc(NC(=O)NC(C)(C)C)ccc21 [Example 36, (R)-1-(tert-butyl)-3-(4-(1-(3-chlorophenyl)ethyl)-3-oxo-3,4-dihydro-2H-benzo[b][1,4]oxazin-7-yl)urea]
< 100 | C[C@@H](c1cccc(Cl)c1)N1C(=O)COc2cc(NC(=O)NC(C)(C)C)ccc21 [Example 37, (S)-1-(tert-butyl)-3-(4-(1-(3-chlorophenyl)ethyl)-3-oxo-3,4-dihydro-2H-benzo[b][1,4]oxazin-7-yl)urea]
> 1000 | CC(C)(C)NC(=O)Nc1ccc2c(c1)oc(=O)n2Cc1ccccc1 [Example 38, 1-(3-benzyl-2-oxo-2,3-dihydrobenzo[d]oxazol-6-yl)-3-(tert-butyl)urea]
< 100 | CC(C)(C)NC(=O)Nc1ccc2c(c1)CCC(=O)N2Cc1cc(C(F)(F)F)ccc1F [Example 39, 1-(tert-butyl)-3-(1-(2-fluoro-5-(trifluoromethyl)benzyl)-2-oxo-1,2,3,4-tetrahydroquinolin-6-yl)urea]
< 100 | Cc1cccc(CN2C(=O)COc3cc(NC(=O)NC(C)(C)C)ccc32)c1 [Example 40, 1-(tert-butyl)-3-(4-(3-methylbenzyl)-3-oxo-3,4-dihydro-2H-benzo[b][1,4]oxazin-7-yl)urea]
< 100 | C[C@H]1Oc2cc(NC(=O)NC(C)(C)C)ccc2N(Cc2ccccc2)C1=O [Example 41, (R)-1-(4-benzyl-2-methyl-3-oxo-3,4-dihydro-2H-benzo[b][1,4]oxazin-7-yl)-3-(tert-butyl)urea]
< 100 | C[C@@H]1Oc2cc(NC(=O)NC(C)(C)C)ccc2N(Cc2ccccc2)C1=O [Example 42, (S)-1-(4-benzyl-2-methyl-3-oxo-3,4-dihydro-2H-benzo[b][1,4]oxazin-7-yl)-3-(tert-butyl)urea]
< 100 | C[C@@H](c1ccccc1)N1C(=O)N(C)Cc2cc(NC(=O)NC(C)(C)C)ccc21 [Example 45, 3-tert-butyl-1-{3-methyl-2-oxo-1-[(1S)-1-phenylethyl]-4H-quinazolin-6-yl}urea]

IC50 [nM] | Compound
> 1000 | C[C@H](c1ccccc1)N1C(=O)N(C)Cc2cc(NC(=O)NC(C)(C)C)ccc21 [Example 45A, 3-tert-butyl-1-{3-methyl-2-oxo-1-[(1R)-1-phenylethyl]-4H-quinazolin-6-yl}urea]
< 100 | C[C@@H](c1cccc(Cl)c1)N1C(=O)N(C)Cc2cc(NC(=O)NC(C)(C)C)ccc21 [Example 46]
< 100 | CN1Cc2cc(NC(=O)NC(C)(C)C)ccc2N(Cc2cccc(Cl)c2)C1=O [Example 47, 1-(tert-butyl)-3-(1-(3-chlorobenzyl)-3-methyl-2-oxo-1,2,3,4-tetrahydroquinazolin-6-yl)urea]
< 100 | Cc1cccc(CN2C(=O)CCc3cc(NC(=O)NC(C)(C)C)ccc32)c1F [Example 48, 1-(tert-butyl)-3-(1-(2-fluoro-3-methylbenzyl)-2-oxo-1,2,3,4-tetrahydroquinolin-6-yl)urea]
< 100 | Cc1ccc(F)c(CN2C(=O)CCc3cc(NC(=O)NC(C)(C)C)ccc32)c1 [Example 49, 1-(tert-butyl)-3-(1-(2-fluoro-5-methylbenzyl)-2-oxo-1,2,3,4-tetrahydroquinolin-6-yl)urea]
< 100 | CC(C)(C)NC(=O)Nc1ccc2c(c1)OCC(=O)N2Cc1cccc(C(F)(F)F)c1 [Example 50, 1-(tert-butyl)-3-(3-oxo-4-(3-(trifluoromethyl)benzyl)-3,4-dihydro-2H-benzo[b][1,4]oxazin-7-yl)urea]
> 1000 | CC(C)(C)NC(=O)Nc1ccc2c(c1)CC(CO)C(=O)N2Cc1ccccc1 (centres unmarked) [Example 51, 1-(1-benzyl-3-(hydroxymethyl)-2-oxo-1,2,3,4-tetrahydroquinolin-6-yl)-3-(tert-butyl)urea]
> 1000 | C[C@H](c1cccc(Cl)c1)N1C(=O)N(C)Cc2cc(NC(=O)NC(C)(C)C)ccc21 [Example 52]
100 to 1000 | Cc1cccc(CN2C(=O)CCc3cc(NC(=O)NC(C)(C)C)ccc32)c1C#N [Example 53, 3-tert-butyl-1-{1-[(2-cyano-3-methylphenyl)methyl]-2-oxo-3,4-dihydroquinolin-6-yl}urea]
< 100 | CC(C)(C)NC(=O)Nc1ccc2c(c1)CCC(=O)N2Cc1cccc(C(F)(F)F)c1F [Example 54, 1-(tert-butyl)-3-(1-(2-fluoro-3-(trifluoromethyl)benzyl)-2-oxo-1,2,3,4-tetrahydroquinolin-6-yl)urea]
< 100 | CC(C)(C)NC(=O)Nc1ccc2c(c1)CCC(=O)N2Cc1cc(C(F)(F)F)ccc1C#N [Example 55, 3-tert-butyl-1-(1-{[2-cyano-5-(trifluoromethyl)phenyl]methyl}-2-oxo-3,4-dihydroquinolin-6-yl) urea]
< 100 | Cc1cccc([C@H](C)N2C(=O)CCc3cc(NC(=O)NC(C)(C)C)ccc32)c1 [Example 56, (S)-1-(tert-butyl)-3-(2-oxo-1-(1-(m-tolyl)ethyl)-1,2,3,4-tetrahydroquinolin-6-yl)urea]
< 100 | Cc1cccc([C@H](C)N2C(=O)COc3cc(NC(=O)NC(C)(C)C)ccc32)c1 [Example 57, (S)-1-(tert-butyl)-3-(3-oxo-4-(1-(m-tolyl)ethyl)-3,4-dihydro-2H-benzo[b][1,4]oxazin-7-yl)urea]
< 100 | C[C@@H](c1ccccc1F)N1C(=O)CCc2cc(NC(=O)NC(C)(C)C)ccc21 [Example 58, 3-tert-butyl-1-{1-[(1S)-1-(2-fluorophenyl)ethyl]-2-oxo-3,4-dihydroquinolin-6-yl}urea]
100 to 1000 | CC(C)(C)NC(=O)Nc1ccc2c(c1)CCC(=O)N2Cc1cccc(C(F)(F)F)c1C#N [Example 59, 1-(tert-butyl)-3-(1-(2-cyano-3-(trifluoromethyl)benzyl)-2-oxo-1,2,3,4-tetrahydroquinolin-6-yl)urea]
< 100 | C[C@@H](c1cccc(C(F)(F)F)c1)N1C(=O)CCc2cc(NC(=O)NC(C)(C)C)ccc21 [Example 60, (S)-3-tert-butyl-1-(2-oxo-1-{1-[3-(trifluoromethyl)phenyl]ethyl}-3,4-dihydroquinolin-6-yl)urea]
100 to 1000 | C[C@@H](c1ccccc1C#N)N1C(=O)CCc2cc(NC(=O)NC(C)(C)C)ccc21 [Example 61, (S)-1-(tert-butyl)-3-(1-(1-(2-cyanophenyl)ethyl)-2-oxo-1,2,3,4-tetrahydroquinolin-6-yl)urea]
